The text below walks through data of doi:10.1101/2022.10.01.510427v1 (biorxiv, 2022).

This experiment deals with T1, Gaussia luciferase (GLuc) (Gaussia princeps (in: crustaceans), UniProt Q9BLZ2).
T1 sequence (Q9BLZ2 18-185): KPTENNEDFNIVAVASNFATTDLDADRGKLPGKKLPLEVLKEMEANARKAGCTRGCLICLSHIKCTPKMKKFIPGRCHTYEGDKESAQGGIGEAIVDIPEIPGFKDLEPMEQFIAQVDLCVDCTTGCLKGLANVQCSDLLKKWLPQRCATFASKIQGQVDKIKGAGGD
In words: bioluminescence inhibition assay. It is filed as biochemical.

On to `O=c1n(Cc2ccc(O)cc2)nc2c(Cc3ccccc3)nc(-c3ccc(O)cc3)cn12` [Aza-CTZ], for which the half-maximal inhibitory concentration (IC50) – broadly, the concentration at which inhibition is half-maximal – was 10 to 100 µM.
